Data as given in the kinase profiling compilation of Christmann-Franck et al. (2016).

Target: RPS6KA3 KD1 KD2 (human) (UniProt P51812)
Test: radiometric filter-binding kinase assay, Kinase HotSpot
Conditions: compound 0.5 µM; ATP 10 µM

RPS6KA3 KD1 KD2 (human), sequence (P51812 whole entry, looked up): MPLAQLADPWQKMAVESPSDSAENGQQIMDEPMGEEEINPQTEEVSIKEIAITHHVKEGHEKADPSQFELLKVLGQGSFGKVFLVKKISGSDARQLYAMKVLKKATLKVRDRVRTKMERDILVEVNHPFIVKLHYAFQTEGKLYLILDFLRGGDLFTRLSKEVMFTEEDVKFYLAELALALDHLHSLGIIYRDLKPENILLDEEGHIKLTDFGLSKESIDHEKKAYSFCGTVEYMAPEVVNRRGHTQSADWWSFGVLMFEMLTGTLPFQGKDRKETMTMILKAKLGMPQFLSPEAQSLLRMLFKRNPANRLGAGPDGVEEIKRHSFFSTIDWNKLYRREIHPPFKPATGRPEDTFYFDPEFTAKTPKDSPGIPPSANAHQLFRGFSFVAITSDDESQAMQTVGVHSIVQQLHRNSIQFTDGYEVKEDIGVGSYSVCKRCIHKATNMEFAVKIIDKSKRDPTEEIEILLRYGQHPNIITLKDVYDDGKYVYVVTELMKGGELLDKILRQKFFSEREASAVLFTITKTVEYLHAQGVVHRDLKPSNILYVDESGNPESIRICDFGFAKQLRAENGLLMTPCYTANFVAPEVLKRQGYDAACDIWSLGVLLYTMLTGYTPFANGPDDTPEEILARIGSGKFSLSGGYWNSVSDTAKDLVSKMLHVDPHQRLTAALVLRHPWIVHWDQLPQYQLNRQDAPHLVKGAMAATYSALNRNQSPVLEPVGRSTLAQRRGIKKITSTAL

Structure (SMILES)	residual activity
O=c1cc(N2CCOCC2)oc2c(-c3ccccc3)cccc12	98.1%
Cn1cc(/C=C2\C(=O)Nc3ccc(S(N)(=O)=O)cc32)c2ccccc21	12.4%
COc1cccc(-c2cc(=O)c3ccccc3o2)c1N	93.6%
O=C1NC(=O)c2cc(Nc3ccc(F)cc3)c(Nc3ccc(F)cc3)cc21	118%

Target: IGF1R (human) (UniProt P08069)
Test: as above
Conditions: compound 0.5 µM; ATP 10 µM

Structure (SMILES)	residual activity
O=c1cc(N2CCOCC2)oc2c(-c3ccccc3)cccc12	102%
Cn1cc(/C=C2\C(=O)Nc3ccc(S(N)(=O)=O)cc32)c2ccccc21	87.9%
COc1cccc(-c2cc(=O)c3ccccc3o2)c1N	91.3%
O=C1NC(=O)c2cc(Nc3ccc(F)cc3)c(Nc3ccc(F)cc3)cc21	102%

Target: PAK2 (human) (UniProt Q13177)
Sequence (Q13177 whole entry, looked up): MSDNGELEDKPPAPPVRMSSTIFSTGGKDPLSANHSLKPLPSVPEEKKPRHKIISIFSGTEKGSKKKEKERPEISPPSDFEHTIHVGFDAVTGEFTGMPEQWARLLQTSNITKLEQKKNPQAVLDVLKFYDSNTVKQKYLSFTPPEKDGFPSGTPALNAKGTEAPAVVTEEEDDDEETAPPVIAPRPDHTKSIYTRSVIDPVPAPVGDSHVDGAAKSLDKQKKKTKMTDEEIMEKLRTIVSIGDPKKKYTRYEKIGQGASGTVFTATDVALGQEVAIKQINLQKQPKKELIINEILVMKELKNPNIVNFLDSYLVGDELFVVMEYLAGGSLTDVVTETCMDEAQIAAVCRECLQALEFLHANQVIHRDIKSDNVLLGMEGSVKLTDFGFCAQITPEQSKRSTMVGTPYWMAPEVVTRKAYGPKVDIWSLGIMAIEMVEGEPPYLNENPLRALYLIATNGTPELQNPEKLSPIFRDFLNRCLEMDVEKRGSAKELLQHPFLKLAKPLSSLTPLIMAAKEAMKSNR
Test: as above
Conditions: compound 0.5 µM; ATP 10 µM

Structure (SMILES)	residual activity
O=c1cc(N2CCOCC2)oc2c(-c3ccccc3)cccc12	103%
Cn1cc(/C=C2\C(=O)Nc3ccc(S(N)(=O)=O)cc32)c2ccccc21	79.2%
COc1cccc(-c2cc(=O)c3ccccc3o2)c1N	104%
O=C1NC(=O)c2cc(Nc3ccc(F)cc3)c(Nc3ccc(F)cc3)cc21	98.5%

Target: HIPK2 (human) (UniProt Q9H2X6)
Sequence (Q9H2X6 whole entry, looked up): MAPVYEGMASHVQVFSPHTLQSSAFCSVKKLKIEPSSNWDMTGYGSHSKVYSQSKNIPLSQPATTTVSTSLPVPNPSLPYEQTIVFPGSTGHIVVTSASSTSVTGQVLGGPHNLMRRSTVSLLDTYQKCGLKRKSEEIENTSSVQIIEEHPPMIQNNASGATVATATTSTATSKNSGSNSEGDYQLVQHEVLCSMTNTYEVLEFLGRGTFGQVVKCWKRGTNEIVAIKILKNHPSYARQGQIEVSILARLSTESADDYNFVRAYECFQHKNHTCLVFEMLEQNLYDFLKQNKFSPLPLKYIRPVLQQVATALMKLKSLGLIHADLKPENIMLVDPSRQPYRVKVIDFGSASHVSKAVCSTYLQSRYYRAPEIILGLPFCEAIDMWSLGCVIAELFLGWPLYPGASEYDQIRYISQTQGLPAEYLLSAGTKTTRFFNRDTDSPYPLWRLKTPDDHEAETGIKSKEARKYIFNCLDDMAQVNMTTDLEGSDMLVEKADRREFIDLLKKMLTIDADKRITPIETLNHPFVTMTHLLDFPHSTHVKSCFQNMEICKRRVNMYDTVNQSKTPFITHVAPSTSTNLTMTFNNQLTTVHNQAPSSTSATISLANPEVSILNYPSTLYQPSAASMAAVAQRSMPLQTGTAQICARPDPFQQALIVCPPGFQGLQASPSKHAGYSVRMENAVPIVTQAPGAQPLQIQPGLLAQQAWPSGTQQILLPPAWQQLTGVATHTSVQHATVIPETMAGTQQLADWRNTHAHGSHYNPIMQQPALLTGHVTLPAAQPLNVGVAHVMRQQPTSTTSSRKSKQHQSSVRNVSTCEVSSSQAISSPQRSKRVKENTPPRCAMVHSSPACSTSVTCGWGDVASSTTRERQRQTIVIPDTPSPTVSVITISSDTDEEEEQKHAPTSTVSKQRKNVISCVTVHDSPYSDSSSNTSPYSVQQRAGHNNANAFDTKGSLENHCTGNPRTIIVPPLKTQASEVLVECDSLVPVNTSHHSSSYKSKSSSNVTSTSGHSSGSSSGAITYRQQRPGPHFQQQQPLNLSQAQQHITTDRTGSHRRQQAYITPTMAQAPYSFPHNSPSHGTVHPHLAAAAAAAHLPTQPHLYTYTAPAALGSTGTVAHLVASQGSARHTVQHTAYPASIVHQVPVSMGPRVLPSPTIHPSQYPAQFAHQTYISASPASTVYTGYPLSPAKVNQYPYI
Test: as above
Conditions: compound 0.5 µM; ATP 10 µM

Structure (SMILES)	residual activity
O=c1cc(N2CCOCC2)oc2c(-c3ccccc3)cccc12	122%
Cn1cc(/C=C2\C(=O)Nc3ccc(S(N)(=O)=O)cc32)c2ccccc21	82.6%
COc1cccc(-c2cc(=O)c3ccccc3o2)c1N	116%
O=C1NC(=O)c2cc(Nc3ccc(F)cc3)c(Nc3ccc(F)cc3)cc21	96.6%

Target: CSNK1G2 (human) (UniProt P78368)
Test: as above
Conditions: compound 0.5 µM; ATP 10 µM

Structure (SMILES)	residual activity
O=c1cc(N2CCOCC2)oc2c(-c3ccccc3)cccc12	94.4%
Cn1cc(/C=C2\C(=O)Nc3ccc(S(N)(=O)=O)cc32)c2ccccc21	100%
COc1cccc(-c2cc(=O)c3ccccc3o2)c1N	98.4%
O=C1NC(=O)c2cc(Nc3ccc(F)cc3)c(Nc3ccc(F)cc3)cc21	97.5%

Target: MET (human) (UniProt P08581)
Test: as above
Conditions: compound 0.5 µM; ATP 10 µM

Structure (SMILES)	residual activity
O=c1cc(N2CCOCC2)oc2c(-c3ccccc3)cccc12	127%
Cn1cc(/C=C2\C(=O)Nc3ccc(S(N)(=O)=O)cc32)c2ccccc21	84.2%
COc1cccc(-c2cc(=O)c3ccccc3o2)c1N	112%
O=C1NC(=O)c2cc(Nc3ccc(F)cc3)c(Nc3ccc(F)cc3)cc21	96.7%

Target: CHUK (human) (UniProt O15111)
Test: as above
Conditions: compound 0.5 µM; ATP 10 µM

Structure (SMILES)	residual activity
O=c1cc(N2CCOCC2)oc2c(-c3ccccc3)cccc12	104%
Cn1cc(/C=C2\C(=O)Nc3ccc(S(N)(=O)=O)cc32)c2ccccc21	109%
COc1cccc(-c2cc(=O)c3ccccc3o2)c1N	104%
O=C1NC(=O)c2cc(Nc3ccc(F)cc3)c(Nc3ccc(F)cc3)cc21	99.2%

Target: EPHA3 (human) (UniProt P29320)
Test: as above
Conditions: compound 0.5 µM; ATP 10 µM

Structure (SMILES)	residual activity
O=c1cc(N2CCOCC2)oc2c(-c3ccccc3)cccc12	98.7%
Cn1cc(/C=C2\C(=O)Nc3ccc(S(N)(=O)=O)cc32)c2ccccc21	80.9%
COc1cccc(-c2cc(=O)c3ccccc3o2)c1N	96.3%
O=C1NC(=O)c2cc(Nc3ccc(F)cc3)c(Nc3ccc(F)cc3)cc21	96.6%

Target: MUSK (human) (UniProt O15146)
Sequence (O15146 whole entry, looked up): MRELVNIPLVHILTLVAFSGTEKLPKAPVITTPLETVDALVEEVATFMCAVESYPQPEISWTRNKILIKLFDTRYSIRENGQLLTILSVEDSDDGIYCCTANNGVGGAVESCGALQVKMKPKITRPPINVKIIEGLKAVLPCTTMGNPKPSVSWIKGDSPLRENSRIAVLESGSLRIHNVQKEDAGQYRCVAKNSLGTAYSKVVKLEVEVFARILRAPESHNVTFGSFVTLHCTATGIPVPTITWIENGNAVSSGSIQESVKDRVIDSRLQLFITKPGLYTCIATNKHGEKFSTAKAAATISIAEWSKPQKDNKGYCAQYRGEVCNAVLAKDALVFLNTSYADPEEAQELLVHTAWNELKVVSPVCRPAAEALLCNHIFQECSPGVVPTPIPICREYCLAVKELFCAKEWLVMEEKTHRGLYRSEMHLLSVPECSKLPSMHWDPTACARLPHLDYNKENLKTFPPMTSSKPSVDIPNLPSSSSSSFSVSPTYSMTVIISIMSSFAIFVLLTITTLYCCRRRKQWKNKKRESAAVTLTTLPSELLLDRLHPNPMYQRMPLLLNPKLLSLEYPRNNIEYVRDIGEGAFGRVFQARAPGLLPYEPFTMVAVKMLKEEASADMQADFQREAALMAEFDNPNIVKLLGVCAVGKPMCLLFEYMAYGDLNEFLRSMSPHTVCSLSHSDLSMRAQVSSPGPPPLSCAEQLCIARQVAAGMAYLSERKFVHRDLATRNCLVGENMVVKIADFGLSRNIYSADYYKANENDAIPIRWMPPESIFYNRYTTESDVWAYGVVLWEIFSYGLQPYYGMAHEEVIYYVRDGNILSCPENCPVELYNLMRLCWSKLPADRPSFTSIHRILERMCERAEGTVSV
Test: as above
Conditions: compound 0.5 µM; ATP 10 µM

Structure (SMILES)	residual activity
O=c1cc(N2CCOCC2)oc2c(-c3ccccc3)cccc12	102%
Cn1cc(/C=C2\C(=O)Nc3ccc(S(N)(=O)=O)cc32)c2ccccc21	105%
COc1cccc(-c2cc(=O)c3ccccc3o2)c1N	94.2%
O=C1NC(=O)c2cc(Nc3ccc(F)cc3)c(Nc3ccc(F)cc3)cc21	90.2%

Target: GSK3B (human) (UniProt P49841)
Sequence (P49841 whole entry, looked up): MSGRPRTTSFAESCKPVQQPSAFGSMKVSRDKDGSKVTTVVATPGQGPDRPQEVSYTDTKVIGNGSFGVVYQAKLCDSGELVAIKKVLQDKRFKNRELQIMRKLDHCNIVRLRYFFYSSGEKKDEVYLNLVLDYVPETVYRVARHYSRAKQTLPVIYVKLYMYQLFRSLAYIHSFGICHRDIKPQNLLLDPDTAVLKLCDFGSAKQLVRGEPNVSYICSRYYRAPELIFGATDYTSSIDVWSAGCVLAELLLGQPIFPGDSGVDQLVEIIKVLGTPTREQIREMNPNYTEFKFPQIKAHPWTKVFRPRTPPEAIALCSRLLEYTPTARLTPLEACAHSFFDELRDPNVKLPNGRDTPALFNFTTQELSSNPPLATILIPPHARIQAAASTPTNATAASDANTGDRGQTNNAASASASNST
Test: as above
Conditions: compound 0.5 µM; ATP 10 µM

Structure (SMILES)	residual activity
O=c1cc(N2CCOCC2)oc2c(-c3ccccc3)cccc12	96.9%
Cn1cc(/C=C2\C(=O)Nc3ccc(S(N)(=O)=O)cc32)c2ccccc21	98.4%
COc1cccc(-c2cc(=O)c3ccccc3o2)c1N	95.7%
O=C1NC(=O)c2cc(Nc3ccc(F)cc3)c(Nc3ccc(F)cc3)cc21	89.2%

Target: ULK1 (human) (UniProt O75385)
Test: as above
Conditions: compound 0.5 µM; ATP 10 µM

Structure (SMILES)	residual activity
O=c1cc(N2CCOCC2)oc2c(-c3ccccc3)cccc12	102%
Cn1cc(/C=C2\C(=O)Nc3ccc(S(N)(=O)=O)cc32)c2ccccc21	27.5%
COc1cccc(-c2cc(=O)c3ccccc3o2)c1N	104%
O=C1NC(=O)c2cc(Nc3ccc(F)cc3)c(Nc3ccc(F)cc3)cc21	102%

Target: RPS6KB1 (human) (UniProt P23443)
Test: as above
Conditions: compound 0.5 µM; ATP 10 µM

Structure (SMILES)	residual activity
O=c1cc(N2CCOCC2)oc2c(-c3ccccc3)cccc12	101%
Cn1cc(/C=C2\C(=O)Nc3ccc(S(N)(=O)=O)cc32)c2ccccc21	44.3%
COc1cccc(-c2cc(=O)c3ccccc3o2)c1N	98%
O=C1NC(=O)c2cc(Nc3ccc(F)cc3)c(Nc3ccc(F)cc3)cc21	95.5%

Target: CLK4 (human) (UniProt Q9HAZ1)
Test: as above
Conditions: compound 0.5 µM; ATP 10 µM

Structure (SMILES)	residual activity
O=c1cc(N2CCOCC2)oc2c(-c3ccccc3)cccc12	89.1%
Cn1cc(/C=C2\C(=O)Nc3ccc(S(N)(=O)=O)cc32)c2ccccc21	42.6%
COc1cccc(-c2cc(=O)c3ccccc3o2)c1N	86.3%
O=C1NC(=O)c2cc(Nc3ccc(F)cc3)c(Nc3ccc(F)cc3)cc21	88.6%

Target: MARK3 (human) (UniProt P27448)
Test: as above
Conditions: compound 0.5 µM; ATP 10 µM

Structure (SMILES)	residual activity
O=c1cc(N2CCOCC2)oc2c(-c3ccccc3)cccc12	95.4%
Cn1cc(/C=C2\C(=O)Nc3ccc(S(N)(=O)=O)cc32)c2ccccc21	57.2%
COc1cccc(-c2cc(=O)c3ccccc3o2)c1N	86.7%
O=C1NC(=O)c2cc(Nc3ccc(F)cc3)c(Nc3ccc(F)cc3)cc21	90.8%

Target: INSRR (human) (UniProt P14616)
Test: as above
Conditions: compound 0.5 µM; ATP 10 µM

Structure (SMILES)	residual activity
O=c1cc(N2CCOCC2)oc2c(-c3ccccc3)cccc12	97.7%
Cn1cc(/C=C2\C(=O)Nc3ccc(S(N)(=O)=O)cc32)c2ccccc21	86.9%
COc1cccc(-c2cc(=O)c3ccccc3o2)c1N	98.4%
O=C1NC(=O)c2cc(Nc3ccc(F)cc3)c(Nc3ccc(F)cc3)cc21	111%

Target: MAP2K2 (human) (UniProt P36507)
Test: as above
Conditions: compound 0.5 µM; ATP 10 µM

Structure (SMILES)	residual activity
O=c1cc(N2CCOCC2)oc2c(-c3ccccc3)cccc12	96.8%
Cn1cc(/C=C2\C(=O)Nc3ccc(S(N)(=O)=O)cc32)c2ccccc21	94.7%
COc1cccc(-c2cc(=O)c3ccccc3o2)c1N	69.2%
O=C1NC(=O)c2cc(Nc3ccc(F)cc3)c(Nc3ccc(F)cc3)cc21	89.5%

Target: TSSK1B (human) (UniProt Q9BXA7)
Test: as above
Conditions: compound 0.5 µM; ATP 10 µM

Structure (SMILES)	residual activity
O=c1cc(N2CCOCC2)oc2c(-c3ccccc3)cccc12	101%
Cn1cc(/C=C2\C(=O)Nc3ccc(S(N)(=O)=O)cc32)c2ccccc21	17%
COc1cccc(-c2cc(=O)c3ccccc3o2)c1N	82.4%
O=C1NC(=O)c2cc(Nc3ccc(F)cc3)c(Nc3ccc(F)cc3)cc21	90.2%

Target: PRKCB2 (human) (UniProt P05771)
Test: as above
Conditions: compound 0.5 µM; ATP 10 µM

Structure (SMILES)	residual activity
O=c1cc(N2CCOCC2)oc2c(-c3ccccc3)cccc12	104%
Cn1cc(/C=C2\C(=O)Nc3ccc(S(N)(=O)=O)cc32)c2ccccc21	86.7%
COc1cccc(-c2cc(=O)c3ccccc3o2)c1N	102%
O=C1NC(=O)c2cc(Nc3ccc(F)cc3)c(Nc3ccc(F)cc3)cc21	15.5%

Target: DMPK (human) (UniProt Q09013)
Sequence (Q09013 whole entry, looked up): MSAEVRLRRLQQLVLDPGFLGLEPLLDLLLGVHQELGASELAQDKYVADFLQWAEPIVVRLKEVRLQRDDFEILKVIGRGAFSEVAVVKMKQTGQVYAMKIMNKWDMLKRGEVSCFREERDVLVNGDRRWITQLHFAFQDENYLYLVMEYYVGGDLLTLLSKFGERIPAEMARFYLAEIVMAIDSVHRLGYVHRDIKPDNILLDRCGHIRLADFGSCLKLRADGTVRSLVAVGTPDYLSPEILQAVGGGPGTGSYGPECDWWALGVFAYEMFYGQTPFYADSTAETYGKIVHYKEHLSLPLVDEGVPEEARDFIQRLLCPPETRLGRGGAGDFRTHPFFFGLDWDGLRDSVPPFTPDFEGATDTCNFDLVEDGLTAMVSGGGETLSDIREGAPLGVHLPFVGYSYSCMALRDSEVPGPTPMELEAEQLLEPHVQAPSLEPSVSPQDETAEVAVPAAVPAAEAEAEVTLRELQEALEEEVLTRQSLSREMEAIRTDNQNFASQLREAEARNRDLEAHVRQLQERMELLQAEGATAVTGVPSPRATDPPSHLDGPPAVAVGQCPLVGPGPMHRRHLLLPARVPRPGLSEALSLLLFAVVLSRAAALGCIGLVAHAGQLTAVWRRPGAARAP
Test: as above
Conditions: compound 0.5 µM; ATP 10 µM

Structure (SMILES)	residual activity
O=c1cc(N2CCOCC2)oc2c(-c3ccccc3)cccc12	99.4%
Cn1cc(/C=C2\C(=O)Nc3ccc(S(N)(=O)=O)cc32)c2ccccc21	106%
COc1cccc(-c2cc(=O)c3ccccc3o2)c1N	97.1%
O=C1NC(=O)c2cc(Nc3ccc(F)cc3)c(Nc3ccc(F)cc3)cc21	108%

Target: PBK (human) (UniProt Q96KB5)
Sequence (Q96KB5 whole entry, looked up): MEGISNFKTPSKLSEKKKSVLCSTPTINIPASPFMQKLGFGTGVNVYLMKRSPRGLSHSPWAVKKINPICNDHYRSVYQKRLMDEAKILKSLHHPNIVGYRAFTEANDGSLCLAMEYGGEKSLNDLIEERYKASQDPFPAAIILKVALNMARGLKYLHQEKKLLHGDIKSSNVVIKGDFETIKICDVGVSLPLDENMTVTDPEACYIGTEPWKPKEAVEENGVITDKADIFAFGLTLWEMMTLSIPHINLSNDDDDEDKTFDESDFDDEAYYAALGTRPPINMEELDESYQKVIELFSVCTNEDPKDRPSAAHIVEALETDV
Test: as above
Conditions: compound 0.5 µM; ATP 10 µM

Structure (SMILES)	residual activity
O=c1cc(N2CCOCC2)oc2c(-c3ccccc3)cccc12	110%
Cn1cc(/C=C2\C(=O)Nc3ccc(S(N)(=O)=O)cc32)c2ccccc21	99.6%
COc1cccc(-c2cc(=O)c3ccccc3o2)c1N	97.6%
O=C1NC(=O)c2cc(Nc3ccc(F)cc3)c(Nc3ccc(F)cc3)cc21	88.4%

Target: SRPK1 (human) (UniProt Q96SB4)
Test: as above
Conditions: compound 0.5 µM; ATP 10 µM

Structure (SMILES)	residual activity
O=c1cc(N2CCOCC2)oc2c(-c3ccccc3)cccc12	104%
Cn1cc(/C=C2\C(=O)Nc3ccc(S(N)(=O)=O)cc32)c2ccccc21	69%
COc1cccc(-c2cc(=O)c3ccccc3o2)c1N	93.4%
O=C1NC(=O)c2cc(Nc3ccc(F)cc3)c(Nc3ccc(F)cc3)cc21	102%
